Read-outs that look alike come from different tables or passages of the source.
Tests used:
Type in all cases: in vivo
[1] = tested on: oilseed rape (Brassica napus); experiment: Test C greenhouse herbicide test, pre- and postemergence
How it was run: (§1)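 Greenhouse pots; pre-em on seeded loam:sand blend, post-em on 2–18 cm plants (1–4 leaf) in sphagnum peat/vermiculite medium. Formulation: non-phytotoxic solvent + surfactant. Read-out: visual % control (0–100) vs controls at 13–15 d.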

[2] = tested on: velvetleaf (Abutilon theophrasti); experiment: as above
How it was run: as §1

[3] = tested on: galium (catchweed bedstraw, Galium aparine); experiment: as above
How it was run: as §1

[4] = tested on: nutsedge, yellow (yellow nutsedge, Cyperus esculentus); experiment: as above
How it was run: as §1

[5] = tested on: pigweed (Amaranthus retroflexus); experiment: Test A greenhouse herbicide test, pre- and postemergence; settings: for pest or weed control at 1000 g/ha: Amaranthus retroflexus, 240 h, 1000 g ai/ha
How it was run: (§2)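 Visual injury ratings, 0 (no effect) to 100 (complete control), versus untreated plants after roughly 10 d in a greenhouse. Compounds, formulated in a surfactant-containing non-phytotoxic solvent, were sprayed on loam–sand soil after sowing (pre) or on one- to two-leaf plants 2–10 cm tall (post).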

[6] = tested on: foxtail, giant (giant foxtail, Setaria faberii); experiment: as above; settings: for pest or weed control at 1000 g/ha: Setaria faberi, 240 h, 1000 g ai/ha
How it was run: as §2

corn (Zea mays) = experiment: as above
How it was run: as §2

[7] = tested on: wheat (Triticum aestivum); experiment: as above; settings: for plant injury at 1000 g/ha: Triticum aestivum, 240 h, 1000 g ai/ha
How it was run: as §2

[8] = tested on: ryegrass, Italian (Italian ryegrass, Lolium multiflorum); experiment: as above
How it was run: as §2

kochia (Kochia scoparia) = experiment: as above
How it was run: as §2

[9] = tested on: ragweed (common ragweed, Ambrosia elatior); experiment: as above
How it was run: as §2

[10] = Postemergence, 31 g ai/ha, 0 to 100 scale (0 no effect, 100 complete control)
[11] = Postemergence, 125 g ai/ha, scale 0 to 100, 0 is no effect, 100 is complete control
[12] = Postemergence, 250 g ai/ha, scale 0 to 100, 0 no effect, 100 complete control, 13 to 15 d
[13] = Preemergence, 31 g ai/ha, scale 0 to 100, 0 is no effect, 100 is complete control
[14] = Preemergence, 62 g ai/ha, scale 0 to 100, 0 is no effect, 100 is complete control
[15] = Preemergence, 250 g ai/ha, scale 0 to 100 (0 no effect, 100 complete control)
[16] = postemergence, 62 g ai/ha, scale 0 to 100, 0 no effect, 100 complete control
[17] = Preemergence, 125 g ai/ha, scale 0 to 100, 0 is no effect, 100 is complete control
[18] = Postemergence, 125 g ai/ha, 0 to 100 scale where 0 is no effect and 100 is complete control
[19] = Postemergence, 500 g ai/ha, 0 to 100 scale, 0 is no effect, 100 is complete control
[20] = Preemergence, 125 g ai/ha, 0 to 100 scale where 0 is no effect and 100 is complete control
[21] = Preemergence, 500 g ai/ha, 0 to 100 scale, 0 no effect, 100 complete control
[22] = Postemergence, 125 g ai/ha, visual rating after approx. 10 d, 0 to 100 scale (0 no effect, 100 complete control)

Structure (SMILES): Cc1ccc2sc(C)c(-c3c(O)c(C)nn(C)c3=O)c2c1 [Compound 1, 4-(2,5-dimethylbenzo[b]thien-3-yl)-5-hydroxy-2,6-dimethyl-3(2H)-pyridazinone]
- Oilseed Rape plant response rating [1, 10]: 0
- Plant response rating, Oilseed Rape [1, 11]: 5
- Plant response rating, Oilseed Rape [1, 12]: 40
- Plant response rating, Oilseed Rape [1, 13]: 0
- Plant response rating, Oilseed Rape [1, 14]: 5
- Oilseed Rape plant response rating [1, 15]: 20
- Oilseed Rape plant response rating [1, 16]: 0
- Velvetleaf plant response rating [2, 10]: 80
- Plant response rating, Velvetleaf [2, 11]: 95
- Plant response rating, Velvetleaf [2, 12]: 100
- Plant response rating, Velvetleaf [2, 14]: 90
- Plant response rating, Velvetleaf [2, 17]: 100
- Velvetleaf plant response rating [2, 15]: 98
- Velvetleaf plant response rating [2, 16]: 85
- Galium plant response rating [3, 10]: 90
- Plant response rating, Galium [3, 11]: 95
- Plant response rating, Galium [3, 12]: 95
- Plant response rating, Galium [3, 13]: 90
- Plant response rating, Galium [3, 14]: 100
- Plant response rating, Galium [3, 17]: 95
- Galium plant response rating [3, 15]: 100
- Galium plant response rating [3, 16]: 95
- Plant response rating, Nutsedge, Yellow [4, 13]: 40
- Plant response rating, Nutsedge, Yellow [4, 14]: 35
- Plant response rating, Nutsedge, Yellow [4, 17]: 70
- Nutsedge, Yellow plant response rating [4, 15]: 75
- pest or weed control at 1000 g/ha ([5]; post-emergence, Postemergence, 0 to 100 scale, 0 is no effect, 100 is complete control, read-out: Pigweed plant response rating): 100%
- pest or weed control at 1000 g/ha ([5]; pre-emergence, Preemergence, 0 to 100 scale, 0 no effect, 100 complete control, read-out: Plant response rating, Pigweed): 100%
- pest or weed control at 1000 g/ha ([6]; post-emergence, Postemergence, 0 to 100 scale, 0 is no effect, 100 is complete control, read-out: Foxtail, Giant plant response rating): 80%
- pest or weed control at 1000 g/ha ([6]; pre-emergence, Preemergence, 0 to 100 scale, 0 no effect, 100 complete control, read-out: Plant response rating, Foxtail, Giant): 100%
- plant injury at 1000 g/ha (corn (Zea mays); Zea mays, post-emergence, 240 h, Postemergence, 1000 g ai/ha, 0 to 100 scale, 0 is no effect, 100 is complete control, read-out: Corn plant response rating): 40%
- Corn plant response rating (crop injury, 0 = no effect, 100 = complete kill) at 1000 g/ha (corn (Zea mays); Zea mays, pre-emergence, 240 h, Preemergence, 1000 g ai/ha, 0 to 100 scale, 0 no effect, 100 complete control): 0%
- plant injury at 1000 g/ha ([7]; post-emergence, Postemergence, 0 to 100 scale, 0 is no effect, 100 is complete control, read-out: Wheat plant response rating): 0%
- plant injury at 1000 g/ha ([7]; pre-emergence, Preemergence, 0 to 100 scale, 0 no effect, 100 complete control, read-out: Plant response rating, Wheat): 0%

Structure (SMILES): CC(=O)Oc1c(C)nn(C)c(=O)c1-c1c(C)sc2ccc(C)cc12 [Compound 25]
- Oilseed Rape plant response rating [1, 10]: 0
- Plant response rating, Oilseed Rape [1, 11]: 20
- Plant response rating, Oilseed Rape [1, 12]: 5
- Plant response rating, Oilseed Rape [1, 13]: 0
- Plant response rating, Oilseed Rape [1, 14]: 0
- Plant response rating, Oilseed Rape [1, 17]: 5
- Oilseed Rape plant response rating [1, 15]: 35
- Oilseed Rape plant response rating [1, 16]: 0
- Velvetleaf plant response rating [2, 10]: 70
- Plant response rating, Velvetleaf [2, 11]: 85
- Plant response rating, Velvetleaf [2, 12]: 98
- Plant response rating, Velvetleaf [2, 14]: 85
- Plant response rating, Velvetleaf [2, 17]: 90
- Velvetleaf plant response rating [2, 15]: 98
- Velvetleaf plant response rating [2, 16]: 80
- Galium plant response rating [3, 10]: 90
- Plant response rating, Galium [3, 11]: 100
- Plant response rating, Galium [3, 12]: 95
- Plant response rating, Galium [3, 13]: 90
- Plant response rating, Galium [3, 14]: 95
- Plant response rating, Galium [3, 17]: 95
- Galium plant response rating [3, 15]: 98
- Galium plant response rating [3, 16]: 95
- Nutsedge, Yellow plant response rating [4, 10]: 65
- Plant response rating, Nutsedge, Yellow [4, 11]: 90
- Plant response rating, Nutsedge, Yellow [4, 12]: 90
- Plant response rating, Nutsedge, Yellow [4, 13]: 40
- Plant response rating, Nutsedge, Yellow [4, 14]: 30
- Plant response rating, Nutsedge, Yellow [4, 17]: 70
- Nutsedge, Yellow plant response rating [4, 15]: 80
- Nutsedge, Yellow plant response rating [4, 16]: 75
- Plant response rating, Ryegrass, Italian [8, 18]: 100
- Ryegrass, Italian plant response rating [8, 19]: 100
- Ryegrass, Italian plant response rating [8, 20]: 100
- Plant response rating, Ryegrass, Italian [8, 21]: 100
- Plant response rating, Pigweed [5, 22]: 90
- Pigweed plant response rating [5, 19]: 100
- Pigweed plant response rating [5, 20]: 100
- Plant response rating, Pigweed [5, 21]: 100
- Plant response rating, Kochia (kochia (Kochia scoparia); [22]): 100
- Kochia plant response rating (kochia (Kochia scoparia); [19]): 100
- Kochia plant response rating (kochia (Kochia scoparia); [20]): 90
- Plant response rating, Kochia (kochia (Kochia scoparia); [21]): 100
- Plant response rating, Foxtail, Giant [6, 22]: 90
- Foxtail, Giant plant response rating [6, 19]: 90
- Foxtail, Giant plant response rating [6, 20]: 90
- Plant response rating, Foxtail, Giant [6, 21]: 90
- Plant response rating, Corn (corn (Zea mays); [22]): 0
- Corn plant response rating (corn (Zea mays); [19]): 20
- Plant response rating, Wheat [7, 18]: 0
- Wheat plant response rating [7, 19]: 0
- Plant response rating, Ragweed [9, 22]: 100
- Ragweed plant response rating [9, 19]: 100
- Ragweed plant response rating [9, 20]: 90
- Plant response rating, Ragweed [9, 21]: 100

— patent US10597388B2, “Pyridazinone herbicides” (FMC CORPORATION, priority 2014, dated 2020)
